Reference: patent publication US5670500A (priority 1995, dated 1997)

Key:
topoisomerase II = details: cited from earlier work
[1] = in vivo; cited from earlier work
topoisomerase I = molecular target: T1, topoisomerase I (Homo sapiens, UniProt P11387); details: cited from earlier work
T1 sequence (P11387 1-765): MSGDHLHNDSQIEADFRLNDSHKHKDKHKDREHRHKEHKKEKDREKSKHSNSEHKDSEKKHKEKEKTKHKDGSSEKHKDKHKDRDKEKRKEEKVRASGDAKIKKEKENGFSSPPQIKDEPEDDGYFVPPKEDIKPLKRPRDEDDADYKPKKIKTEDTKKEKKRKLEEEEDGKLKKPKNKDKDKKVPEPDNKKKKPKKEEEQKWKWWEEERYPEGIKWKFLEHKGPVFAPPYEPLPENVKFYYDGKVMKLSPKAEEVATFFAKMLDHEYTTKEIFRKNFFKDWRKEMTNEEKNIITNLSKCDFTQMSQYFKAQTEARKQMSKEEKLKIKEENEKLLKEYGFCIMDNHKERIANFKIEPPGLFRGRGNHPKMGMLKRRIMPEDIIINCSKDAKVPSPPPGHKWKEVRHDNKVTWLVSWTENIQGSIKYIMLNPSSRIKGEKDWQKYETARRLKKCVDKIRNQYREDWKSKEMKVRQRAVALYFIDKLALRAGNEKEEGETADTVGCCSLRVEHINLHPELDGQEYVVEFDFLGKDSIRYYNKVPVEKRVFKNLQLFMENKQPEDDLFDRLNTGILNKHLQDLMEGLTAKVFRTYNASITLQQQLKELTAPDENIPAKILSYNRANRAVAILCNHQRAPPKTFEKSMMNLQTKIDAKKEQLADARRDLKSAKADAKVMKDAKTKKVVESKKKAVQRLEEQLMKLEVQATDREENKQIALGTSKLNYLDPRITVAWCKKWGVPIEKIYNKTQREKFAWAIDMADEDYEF

Colon 26 = test: Efficacy in mouse tumor models: Colon Carcinoma 26; type: in vivo; details: Colon 26 mouse model
Experimental: (§1) The efficacy of the compounds of the present invention was also tested in vivo using three well-known mouse tumor models: L1210, Lewis Lung, and Colon Carcinoma 26.

[2] = system: multidrug resistant (CH^R C5) Chinese Hamster ovary cells; test: CHO Microtiter Cytotoxicity Assay, multidrug resistant; type: cell-based; details: Cricetulus griseus, CHRC5, 72 h, 3 days, XTT
Experimental: (§2) CHO Microtiter Cytotoxicity Assay
(§3) Chinese Hamster ovary cells are grown in Alpha MEM Medium with L-glutamine and nucleosides and containing 10% fetal bovine serum and 100 units per mL penicillin-streptomycin in 75 cm^2 canted neck tissue culture flasks. They are harvested from these flasks using 0.5% trypsin. Microtiter plates (96-well, sterile, flat bottom) (Corning 25860) are seeded with 1.6×10^3 wild-type (AUX-B1) Chinese Hamster ovary cells per well or 2×10^3 multidrug resistant (CH^R C5) Chinese Hamster ovary cells per well. The plates are incubated at 37° C., 5% CO2 overnight to allow the cells to attach. The outside wells of each plate are not used, due to evaporation during the incubation time. They are filled with medium and used as blanks. The next day, the medium is aspirated from the wells and 180 μL of fresh medium is added to each well. Compounds are diluted from stock solution in DMSO into fresh medium to a 10X concentration containing 2% DMSO. Twenty μL of this is then added to the 180 μL of fresh meduim in the wells. The plates are then incubated for another 3 days at 37° C., 5% CO2. […] The plate is then read on a UV Max plate reader, using wells without cells .(i.e., containing only 200 μL of medium and 50 μL of XTT/PMS solution) as a background control.

L1210 = test: Efficacy in mouse tumor models: L1210; type: in vivo; details: L1210 mouse model, dose 42 mg/kg ip
Experimental: as §1

[3] = system: wild-type (AUX-B1) Chinese Hamster ovary cells; test: CHO Microtiter Cytotoxicity Assay, wild type; type: cell-based; details: Cricetulus griseus, AuxB1, 72 h, 3 days, XTT
Experimental: as §2, §3

Lewis Lung = test: Efficacy in mouse tumor models: Lewis Lung; type: in vivo; details: Lewis Lung mouse model, dose 9 mg/kg ip
Experimental: as §1

[4] = system: solid tumor cancers, particularly ovarian cancer and non-small cell lung carcinoma; details: humans; cited from earlier work

| Compound | toxicity [1] | IC50 [2] [µM] | IC50 [3] [µM] | % Inc. in Lifespan, Colon 26 (Colon 26; dose 20 mg/kg sc) [%] | also measured |
| --- | --- | --- | --- | --- | --- |
| CC[C@@]1(O)C(=O)OCc2c1cc1n(c2=O)Cc2cc3ccccc3nc2-1 [Camptothecin] | unacceptable dose limiting toxicity, unpredictable toxicity |  |  |  | effect on topoisomerase II (topoisomerase II): no effect on topoisomerase II; inhibition of topoisomerase I (topoisomerase I): inhibit topoisomerase I; % Inc. in Lifespan, Colon 26 (Colon 26; dose 4 mg/kg ip): 50% |
| CC[C@@]1(O)C(=O)OCc2c1cc1n(c2=O)Cc2cc3c4c(ccc3nc2-1)OC(CN1CCOCC1)C4 (stereo partly drawn) [Formula III, (8S)-8-ethyl-1,2-dihydro-8-hydroxy-2(4-morpholinylmethyl)11H-furano [3,2-f]-pyrano[3',4':6,7]indolizino[1,2-b]quinoline-9,12(8H,14H)-dione] |  | 0.42 | 0.0055 | 45 | % Inc. in Lifespan, L1210 (L1210): 350% |
| CC[C@@]1(O)C(=O)OCc2c1cc1n(c2=O)Cc2cc3c4c(ccc3nc2-1)OC(CN(C)C)C4 (stereo partly drawn) [Formula IV, (8S)-2-[(dimethylamino)methyl]-8-ethyl-1,2-dihydro-8-hydroxy-11H-furano[3,2-f]-pyrano [3',4':6,7]indolizino[1,2-b]quinoline-9,12(8H,14H)-dione] |  | 1 | 0.018 | 32 | % Inc. in Lifespan, Lewis Lung (Lewis Lung): 67% |
| CC[C@@]1(O)C(=O)OCc2c1cc1n(c2=O)Cc2cc3c(CN(C)C)c(O)ccc3nc2-1 [Topotecan, 9-dimethylaminomethyl-10-hydroxycamptothecin, reference compound] |  |  |  | 45 | efficacy in clinical tests [4]: demonstrated efficacy against several solid tumor cancers, particularly ovarian cancer and non-small cell lung carcinoma |
| (S)-10-amino-4-ethyl-4-hydroxy-1H-pyrano[3',4':6,7]indolizino [1,2-b]quinoline-3,14(4H,12H)-dione [CPT-11] | adverse toxicity profile |  |  |  |  |
